# Data published in patent US10001584B2, “Optical film, and polarizing plate and liquid crystal display device that use this optical film” (FUJIFILM Corporation, priority 2013, dated 2018).
# Like-named read-outs stand apart in the source and are kept apart here.
# Assays:
# [1] = pKa by alkali titration with automatic potentiometric titrator; type: physicochemical; settings: mixed solvent THF/H2O=6/4 (volume ratio), 25° C.; for pKa: Table 1
# Method: pKa of the obtained exemplificative compound was measured in a mixed solvent having a volume ratio of tetrahydrofuran (THF)/water (H2O)=6/4 at 25° C. by an alkali titration method using automatic potentiometric titrator [AT-610: manufactured by Kyoto Electronics Manufacturing Co., Ltd.].
# The pKa of the compound of the present invention and the comparative compound in a mixed solvent having a volume ratio of tetrahydrofuran (THF)/water (H2O)=6/4 at 25° C. was measured by an alkali titration method using automatic potentiometric titrator (AT-610: manufactured by Kyoto Electronics Manufacturing Co., Ltd.).
# [2] = Volatility: mass change rate of the compound by TG/DTA, held at 140° C. for 1 hour; type: physicochemical; settings: for Volatility: held at 140° C. for 1 hour; for volatility suppression effect: in words, discussion of Table 1
# Method: The compound denoted by Formula (I) in the present invention was heated from room temperature to 140° C. by using a TG/DTA measurement device (TG/DTA7200 manufactured by Hitachi High-Tech Science Corporation), a change rate of the mass of the compound at the time of being held at 140° C. for 1 hour (a change rate with respect to the mass before being heated) was measured, and the volatility was evaluated on the basis of the following criteria.
# [3] = tetrahydrofuran/water 6/4 (v/v) mixed solvent, read-out: pKa
Structure (SMILES),pKa Value [1],pKa [1],"Volatility ([2]; additive, Table 3)","Volatility ([2]; additive, Table 4)","Volatility ([2]; compound alone, Table 1)","pKa [1, 3]",volatility suppression effect [2]
O=C(O)CN(CC(=O)OCc1ccccc1)CC(=O)OCc1ccccc1 [Exemplificative Compound (1-1)],6.0,6.0,A (The change rate of the mass of less than or equal to 0.2%),A (The change rate of the mass of less than or equal to 0.2%),A (The change rate of the mass of less than or equal to 0.2%),–,–
CCC(Oc1ccc(C(C)(C)CC)cc1C(C)(C)CC)C(=O)Nc1cccc(C(=O)O)c1 (stereo not shown) [(0-3)],–,–,–,–,A (The change rate of the mass of less than or equal to 0.2%),6.6,–
O=C(O)CN(CC(=O)O)Cc1ccccc1 [(0-2)],–,–,–,–,B (The change rate of the mass of greater than or equal to 0.2% and less than 0.5%),3.2,insufficient
O=C1NC(=O)N(Cc2ccccc2)C(=O)C1c1ccccc1 (stereo not shown) [Comparative Compound (0-1)],–,–,–,–,B (The change rate of the mass of greater than or equal to 0.2% and less than 0.5%),3.7,insufficient
